# How the values were obtained:
# [1] = target: T1, human adenosine A2a receptor (Homo sapiens, UniProt P29274); test: Adenosine A2a Receptor Functional Assay (A2AGAL2); assay type: cell-based; settings: CHO-K1 cells, cAMP inducible beta-galactosidase reporter, 15 nM NECA agonist challenge
# T1 construct: expressed in transfected cells; host or cells: CHO-K1
# Method: Adenosine A2a Receptor Functional Assay (A2AGAL2)
# Prior to assay, these plates were cultured for two days at 37° C., 5% CO2, 90% Rh. On the day of the functional assay, culture media was removed and replaced with 45 uL assay medium (Hams/F-12 Modified (Mediatech #10-080CV) supplemented w/0.1% BSA). Test compounds were diluted and 11 point curves created at a 1000× concentration in 100% DMSO. Immediately after addition of assay media to the cell plates, 50 nL of the appropriate test compound antagonist or agonist control curves were added to cell plates using a Cartesian Hummingbird. […] A control curve of NECA, a DMSO/Media control, and a single dose of Forskolin (Sigma F3917) were also included on each plate. After additions, cell plates were allowed to incubate at 37° C., 5% CO2, 90% Rh for 5.5-6 hours. After incubation, media was removed, and cell plates were washed 1×50 uL with DPBS w/o Ca & Mg (Mediatech 21-031-CV). Into dry wells, 20 uL of 1× Reporter Lysis Buffer (Promega E3971 (diluted in dH2O from 5× stock)) was added to each well and plates frozen at −20° C. overnight. For β-galactosidase enzyme colorimetric assay, plates were thawed out at room temperature and 20 μL 2× assay buffer (Promega) was added to each well. Color was allowed to develop at 37° C., 5% CO2, 90% Rh for 1-1.5 h or until reasonable signal appeared. The colorimetric reaction was stopped with the addition of 60 μL/well 1M sodium carbonate. Plates were counted at 405 nm on a SpectraMax Microplate Reader (Molecular Devices). Data was analyzed in Microsoft Excel and IC/EC50 curves were fit using a standardized macro.
# [2] = target: T2, human A2a adenosine receptor (Homo sapiens, UniProt P29274); test: Ligand Binding Assay for Adenosine A2a Receptor; settings: HEK293 plasma membrane, radioligand [3H]CGS21680; read-out: A2A-B Ki
# T2 construct: purchased PerkinElmer RB-HA2a; host or cells: HEK293 plasma membranes
# Method: Ligand Binding Assay for Adenosine A2a Receptor
# Ligand binding assay of adenosine A2a receptor was performed using plasma membrane of HEK293 cells containing human A2a adenosine receptor (PerkinElmer, RB-HA2a) and radioligand [^3H]CGS21680 (PerkinElmer, NET1021). Assay was set up in 96-well polypropylene plate in total volume of 200 μL by sequentially adding 20 μL 1:20 diluted membrane, 130 μL assay buffer (50 mM Tris.HCl, pH7.4 10 mM MgCl2, 1 mM EDTA) containing [^3H] CGS21680, 50 μL diluted compound (4×) or vehicle control in assay buffer. Nonspecific binding was determined by […] NECA. Reaction was carried out at room temperature for 2 hours before filtering through 96-well GF/C filter plate pre-soaked in 50 mM Tris.HCl, pH7.4 containing 0.3% polyethylenimine. Plates were then washed 5 times with cold 50 mM Tris.HCl, pH7.4, dried and sealed at the bottom. Microscintillation fluid 30 μL was added to each well and the top sealed. Plates were counted on Packard Topcount for [^3H]. Data was analyzed in Microsoft Excel and GraphPad Prism programs. (Varani, K.; Gessi, S.; Dalpiaz, A.; Borea, P. A. British Journal of Pharmacology, 1996, 117, 1693)
# [3] = target: T3, human adenosine A1 receptor (Homo sapiens, UniProt P30542); test: Adenosine A1 Receptor Functional Assay (A1GAL2); assay type: cell-based; settings: CHO-K1 cells, cAMP inducible beta-galactosidase reporter, 4 nM r-PIA/1 uM Forskolin challenge
# T3 construct: expressed in transfected cells; host or cells: CHO-K1
# T3 sequence (P30542 1-326): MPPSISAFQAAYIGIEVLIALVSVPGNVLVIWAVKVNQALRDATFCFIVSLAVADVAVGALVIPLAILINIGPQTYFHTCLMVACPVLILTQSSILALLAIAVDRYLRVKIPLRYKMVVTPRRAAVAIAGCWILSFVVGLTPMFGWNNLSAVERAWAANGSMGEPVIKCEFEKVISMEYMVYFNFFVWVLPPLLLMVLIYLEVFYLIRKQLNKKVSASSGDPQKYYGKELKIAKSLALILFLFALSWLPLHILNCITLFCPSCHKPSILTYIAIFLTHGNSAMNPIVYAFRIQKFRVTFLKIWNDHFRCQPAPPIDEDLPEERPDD
# Method: Adenosine A1 Receptor Functional Assay (A1GAL2)
# To initiate the functional assay, cryopreserved CHO-K1 cells overexpressing the human adenosine A1 receptor and containing a cAMP inducible beta-galactosidase reporter gene were thawed, centrifuged, DMSO containing media removed, and then seeded with fresh culture media into clear 384-well tissue culture treated plates (BD #353961) at a concentration of 10K cells/well. Prior to assay, these plates were cultured for two days at 37° C., 5% CO2, 90% Rh. On the day of the functional assay, culture media was removed and replaced with 45 uL assay medium (Hams/F-12 Modified (Mediatech #10-080CV) supplemented w/0.1% BSA). Test compounds were diluted and 11 point curves created at a 1000× concentration in 100% DMSO. Immediately after addition of assay media to the cell plates, 50 nL of the appropriate test compound antagonist or agonist control curves were added to cell plates using a Cartesian Hummingbird. Compound curves were allowed to incubate at room temperature on cell plates for approximately 15 minutes before addition of a 4 nM r-PIA (Sigma P4532)/1 uM Forskolin (Sigma F3917) agonist challenge (5 uL volume). A control curve of r-PIA in 1 uM Forskolin, a DMSO/Media control, and a single dose of Forskolin were also included on each plate. After additions, cell plates were allowed to incubate at 37° C., 5% CO2, 90% Rh for 5.5-6 hours. After incubation, media was removed, and cell plates were washed 1×50 uL with DPBS w/o Ca & Mg (Mediatech 21-031-CV). Into dry wells, 20 uL of 1× Reporter Lysis Buffer (Promega E3971 (diluted in dH2O from 5× stock)) was added to each well and plates frozen at −20° C. overnight. For β-galactosidase enzyme calorimetric assay, plates were thawed out at room temperature and 20 μL 2× assay buffer (Promega) was added to each well. Color was allowed to develop at 37° C., 5% CO2, 90% Rh for 1-1.5 h or until reasonable signal appeared. The calorimetric reaction was stopped with the addition of 60 μL/well 1M sodium carbonate. Plates were counted at 405 nm on a SpectraMax Microplate Reader (Molecular Devices). Data was analyzed in Microsoft Excel and IC/EC50 curves were fit using a standardized macro.
# T1 sequence (P29274 whole entry): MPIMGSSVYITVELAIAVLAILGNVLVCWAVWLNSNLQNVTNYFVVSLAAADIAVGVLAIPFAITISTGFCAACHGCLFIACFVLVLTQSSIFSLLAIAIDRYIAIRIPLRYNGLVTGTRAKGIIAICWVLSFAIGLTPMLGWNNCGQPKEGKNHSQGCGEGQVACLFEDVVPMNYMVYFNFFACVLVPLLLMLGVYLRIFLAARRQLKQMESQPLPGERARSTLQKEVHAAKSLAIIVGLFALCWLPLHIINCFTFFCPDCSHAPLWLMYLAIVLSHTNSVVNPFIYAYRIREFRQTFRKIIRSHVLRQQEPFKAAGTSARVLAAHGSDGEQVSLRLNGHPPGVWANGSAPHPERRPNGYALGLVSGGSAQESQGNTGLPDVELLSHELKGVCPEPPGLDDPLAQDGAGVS
# T2 sequence (P29274 whole entry): as above
SMILES,Ki [1],Ki [2],Ki [3]
"Nc1nc(-c2cccnc2)nc2sc(Cc3ccccc3)cc12 [Example 13, 6-Benzyl-2-pyridin-3-yl-thieno[2,3-d]pyrimidin-4-ylamine]",215 nM,192 nM,1420 nM
"Cc1csc(-c2nc(N)c3cc(Cc4ccccc4)sc3n2)n1 [Example 14, 6-Benzyl-2-(4-methyl-thiazol-2-yl)-thieno[2,3-d]pyrimidin-4-ylamine]",16.1 nM,46.3 nM,1490 nM
"Cc1ccc(-c2nc(N)c3cc(CCc4ccccc4)sc3n2)o1 [Example 22, 2-(5-Methyl-furan-2-yl)-6-phenethyl-thieno[2,3-d]pyrimidin-4-ylamine]",189 nM,50 nM,2760 nM
"Cc1ccc(-c2nc(N)c3cc(CCc4ccc(F)cc4)sc3n2)o1 [Example 29, 6-[2-(4-Fluoro-phenyl)-ethyl]-2-(5-methyl-furan-2-yl)-thieno[2,3-d]pyrimidin-4-ylamine]",61.2 nM,6.61 nM,1570 nM
"Cc1ccc(-c2nc(N)c3cc(/C=C/c4ccc(F)cc4)sc3n2)o1 [Example 30, 6-[2-(4-Fluoro-phenyl)-vinyl]-2-(5-methyl-furan-2-yl)-thieno[2,3-d]pyrimidin-4-ylamine]",938 nM,173 nM,20200 nM
"Cc1ccc(-c2nc(N)c3cc(/C=C/c4ccccc4)sc3n2)o1 [Example 33, 2-(5-Methyl-furan-2-yl)-6-styryl-thieno[2,3-d]pyrimidin-4-ylamine]",236 nM,26 nM,3340 nM
"Nc1nc(-c2ccc(C(F)F)o2)nc2sc(C(O)c3ccccc3)cc12 (stereo not drawn) [Example 41, [4-Amino-2-(5-difluoromethyl-furan-2-yl)-thieno[2,3-d]pyrimidin-6-yl]-phenyl-methanol]",11.3 nM,17.9 nM,223 nM
"Nc1nc(-c2ccc(C(F)F)o2)nc2sc(Cc3ccccc3)cc12 [Example 43, 6-Benzyl-2-(5-difluoromethyl-furan-2-yl)-thieno[2,3-d]pyrimidin-4-ylamine]",25.2 nM,37.5 nM,3000 nM

# Reference: US20100093721A1, “PHENYL AND HETEROARYL SUBSTITUTED THIENO[2,3-d]PYRIMIDINES AND THEIR USE AS ADENOSINE A2a RECEPTOR ANTAGONISTS” (priority 2008, published 2010)
